From ChEMBL document CHEMBL4033749, “Synthesis and biological evaluation of 5-fatty-acylamido-1, 3, 4-thiadiazole-2-thioglycosides” (Bioorg Med Chem Lett, 2017)
pIC50: −log10 of the molar value. In brackets after ≈: the same amount, converted by molar mass. Activity calls are given as the source filed them. The rule behind the calls is not given here.

Assays:
DU-145 = test: Cytotoxicity against human DU145 cells incubated for 24 hrs by MTT asasy; format: functional, cell-based; settings: for IC50: du-145; for pIC50: Homo sapiens, DU-145, 24 h, read-out: IC50
Klebsiella pneumoniae = test: Antibacterial activity Klebsiella pneumoniae MTCC 618 by agar well method; format: functional
SK-OV-3 = test: Cytotoxicity against human SKOV3 cells incubated for 24 hrs by MTT asasy; format: functional, cell-based; settings: for IC50: sk-ov-3; for pIC50: Homo sapiens, SK-OV-3, 24 h, read-out: IC50
Escherichia coli = test: Antibacterial activity Escherichia coli MTCC 443 by agar well method; format: functional
Bacillus subtilis = test: Antibacterial activity Bacillus subtilis MTCC 441 by agar well method; format: functional
CHO-K1 = test: Cytotoxicity against CHOK1 cells incubated for 24 hrs by MTT asasy; format: cell-based, Cricetulus griseus; settings: for IC50: cho-k1; for pIC50: Cricetulus griseus, CHO-K1, 24 h, read-out: IC50
HeLa = test: Cytotoxicity against human HeLa cells incubated for 24 hrs by MTT asasy; format: functional, cell-based; settings: for pIC50: Homo sapiens, HeLa, 24 h, read-out: IC50
Pseudomonas aeruginosa = test: Antibacterial activity Pseudomonas aeruginosa MTCC 1688 by agar well method; format: functional
MDA-MB-231 = test: Cytotoxicity against human MDA-MB-231 cells incubated for 24 hrs by MTT asasy; format: functional, cell-based; settings: for pIC50: Homo sapiens, MDA-MB-231, 24 h, read-out: IC50
[1] = system: Staphylococcus epidermidis; test: Antibacterial activity Staphylococcus epidermidis MTCC 9041 by agar well method; format: functional
Staphylococcus aureus = test: Antibacterial activity Staphylococcus aureus MTCC 96 by agar well method; format: functional

MIC (Klebsiella pneumoniae)	MIC (Escherichia coli)	MIC (Bacillus subtilis)	MIC (Pseudomonas aeruginosa)	MIC [1]	MIC (Staphylococcus aureus)	SMILES	IC50 (DU-145)	IC50 (SK-OV-3)	IC50 (CHO-K1)	pIC50 (HeLa)	pIC50 (MDA-MB-231)	pIC50 (CHO-K1)	pIC50 (DU-145)	IC50 (HeLa; hela)	IC50 (MDA-MB-231; mda-mb-231)	pIC50 (SK-OV-3)
> 150 µg/mL	> 150 µg/mL	> 150 µg/mL	> 150 µg/mL	> 150 µg/mL	> 150 µg/mL	CCCCCCCCCCCCCCCC(=O)Nc1nnc(S[C@@H]2O[C@H](CO)[C@H](O)[C@H](O)[C@H]2O)s1	Not Active	Not Active	Not Active	4.85	4.21					
25 µg/mL (≈ 49.4 µM)	> 150 µg/mL	50 µg/mL (≈ 98.9 µM)	> 150 µg/mL	> 150 µg/mL	> 150 µg/mL	CCCCCCCCCCCCCC(=O)Nc1nnc(S[C@@H]2O[C@H](CO)[C@H](O)[C@H](O)[C@H]2O)s1	Not Active	Not Active	Not Active	4.51	4.48					
> 150 µg/mL	> 150 µg/mL	> 150 µg/mL	> 150 µg/mL	> 150 µg/mL	> 150 µg/mL	CCCCCCCCCC(=O)Nc1nnc(S[C@@H]2O[C@H](CO)[C@H](O)[C@H](O)[C@H]2O)s1	Not Active	Not Active	Not Active	4.59	4.27					
> 150 µg/mL	> 150 µg/mL	> 150 µg/mL	> 150 µg/mL	> 150 µg/mL	> 150 µg/mL	CCCCCCCCCCCCCCCCCC(=O)Nc1nnc(S[C@@H]2O[C@H](CO)[C@H](O)[C@H](O)[C@H]2O)s1	Not Active	Not Active	Not Active	4.95	4.17					
> 150 µg/mL	> 150 µg/mL	> 150 µg/mL	> 150 µg/mL	> 150 µg/mL	> 150 µg/mL	CCCCCCCC/C=C\CCCCCCCC(=O)Nc1nnc(S[C@@H]2O[C@H](CO)[C@H](O)[C@H](O)[C@H]2O)s1	Not Active	Not Active	Not Active	5.06	4.36					
> 150 µg/mL	> 150 µg/mL	> 150 µg/mL	> 150 µg/mL	> 150 µg/mL	> 150 µg/mL	CCCCCCCC/C=C\CCCCCCCCCCCC(=O)Nc1nnc(S[C@@H]2O[C@H](CO)[C@H](O)[C@H](O)[C@H]2O)s1	Not Active	Not Active	Not Active	4.87	4.15					
12.5 µg/mL (≈ 26.2 µM)	> 150 µg/mL	25 µg/mL (≈ 52.3 µM)	> 150 µg/mL	> 150 µg/mL	> 150 µg/mL	CCCCCCCCCCCC(=O)Nc1nnc(S[C@@H]2O[C@H](CO)[C@H](O)[C@H](O)[C@H]2O)s1	Not Active	Not Active	Not Active	5.06	4.49					

Further lines, the compound ahead of its results:

SMILES	MIC (Klebsiella pneumoniae)	MIC (Escherichia coli)	MIC (Bacillus subtilis)	MIC (Pseudomonas aeruginosa)	MIC [1]	MIC (Staphylococcus aureus)	IC50 (DU-145)	IC50 (SK-OV-3)	IC50 (CHO-K1)	pIC50 (HeLa)	pIC50 (MDA-MB-231)	pIC50 (CHO-K1)	pIC50 (DU-145)	IC50 (HeLa; hela)	IC50 (MDA-MB-231; mda-mb-231)	pIC50 (SK-OV-3)
CCCCCCCC(=O)Nc1nnc(S[C@@H]2O[C@H](COC(C)=O)[C@H](OC(C)=O)[C@H](OC(C)=O)[C@H]2OC(C)=O)s1	inactive	inactive	inactive	inactive	inactive	inactive	Not Active	Not Active		4.36	4.72	4.72				
CCCCCC(=O)Nc1nnc(S[C@@H]2O[C@H](COC(C)=O)[C@H](OC(C)=O)[C@H](OC(C)=O)[C@H]2OC(C)=O)s1	inactive	inactive	inactive	inactive	inactive	inactive	Not Active	Not Active		4.70	4.60	4.61				
CCCCCCCC/C=C\CCCCCCCC(=O)Nc1nnc(S[C@@H]2O[C@H](COC(C)=O)[C@H](OC(C)=O)[C@H](OC(C)=O)[C@H]2OC(C)=O)s1	inactive	inactive	inactive	inactive	inactive	inactive		Not Active		4.26	4.63	4.58	4.38			
C=CCCCCCCCCC(=O)Nc1nnc(S[C@@H]2O[C@H](CO)[C@H](O)[C@H](O)[C@H]2O)s1	> 150 µg/mL	> 150 µg/mL	> 150 µg/mL	> 150 µg/mL	> 150 µg/mL	> 150 µg/mL	Not Active	Not Active	Not Active	4.23	4.09					
CO[C@@]12[C@H](COC(N)=O)C3=C(C(=O)C(C)=C(N)C3=O)N1C[C@@H]1N[C@@H]12 [MITOMYCIN]							Not Active	Not Active				4.87 to 4.88		Not Active	Not Active	
CCCCCCCCCC(=O)Nc1nnc(S[C@@H]2O[C@H](COC(C)=O)[C@H](OC(C)=O)[C@H](OC(C)=O)[C@H]2OC(C)=O)s1	inactive	inactive	inactive	inactive	inactive	inactive		Not Active		4.35	4.72	4.71	4.46			
CCCCCCCCCCCCCCCC(=O)Nc1nnc(S[C@@H]2O[C@H](COC(C)=O)[C@H](OC(C)=O)[C@H](OC(C)=O)[C@H]2OC(C)=O)s1	inactive	inactive	inactive	inactive	inactive	inactive		Not Active		4.23	4.60	4.04	4.52			
CCCCCCCC(=O)Nc1nnc(S[C@@H]2O[C@H](CO)[C@H](O)[C@H](O)[C@H]2O)s1	> 150 µg/mL	> 150 µg/mL	> 150 µg/mL	> 150 µg/mL	> 150 µg/mL	> 150 µg/mL	Not Active			4.29	4.51	4.22				4.25
CCCCCCCC/C=C\CCCCCCCCCCCC(=O)Nc1nnc(S[C@@H]2O[C@H](COC(C)=O)[C@H](OC(C)=O)[C@H](OC(C)=O)[C@H]2OC(C)=O)s1	inactive	inactive	inactive	inactive	inactive	inactive		Not Active		4.23	4.60	4.60	4.55			
CC1(C)S[C@@H]2[C@H](NC(=O)Cc3ccccc3)C(=O)N2[C@H]1C(=O)O [PENICILLIN G]	6.25 µg/mL (≈ 18.7 µM)	12.5 µg/mL (≈ 37.4 µM)	1.56 µg/mL (≈ 4.67 µM)	12.5 µg/mL (≈ 37.4 µM)	3.12 µg/mL (≈ 9.35 µM)	1.56 µg/mL (≈ 4.67 µM)										
CN[C@@H]1[C@H](O[C@H]2[C@H](O[C@H]3[C@H](O)[C@@H](O)[C@H](N=C(N)N)[C@@H](O)[C@@H]3N=C(N)N)O[C@@H](C)[C@]2(O)C=O)O[C@@H](CO)[C@H](O)[C@H]1O [STREPTOMYCIN]	3.12 µg/mL (≈ 5.37 µM)	6.25 µg/mL (≈ 10.7 µM)	6.25 µg/mL (≈ 10.7 µM)	1.56 µg/mL (≈ 2.69 µM)	3.12 µg/mL (≈ 5.37 µM)	6.25 µg/mL (≈ 10.7 µM)										
CCCCCCCCCCCCCCCCCC(=O)Nc1nnc(S[C@@H]2O[C@H](COC(C)=O)[C@H](OC(C)=O)[C@H](OC(C)=O)[C@H]2OC(C)=O)s1	inactive	inactive	inactive	inactive	inactive	inactive		Not Active		4.01	4.63	4.35	4.51			
CCCCCC(=O)Nc1nnc(S[C@@H]2O[C@H](CO)[C@H](O)[C@H](O)[C@H]2O)s1	> 150 µg/mL	> 150 µg/mL	> 150 µg/mL	> 150 µg/mL	> 150 µg/mL	> 150 µg/mL	Not Active	Not Active	Not Active	4.34	4.54					
COc1cccc2c1C(=O)c1c(O)c3c(c(O)c1C2=O)C[C@@](O)(C(=O)CO)C[C@@H]3O[C@H]1C[C@H](N)[C@H](O)[C@H](C)O1 [DOXORUBICIN]									Not Active	6.15	6.10 to 6.15		6.10 to 6.15			6.10 to 6.15
C=CCCCCCCCCC(=O)Nc1nnc(S[C@@H]2O[C@H](COC(C)=O)[C@H](OC(C)=O)[C@H](OC(C)=O)[C@H]2OC(C)=O)s1	inactive	inactive	inactive	inactive	inactive	inactive		Not Active		4.11	4.22	4.79	4.64			
CCCCCCCCCCCCCC(=O)Nc1nnc(S[C@@H]2O[C@H](COC(C)=O)[C@H](OC(C)=O)[C@H](OC(C)=O)[C@H]2OC(C)=O)s1	inactive	inactive	inactive	inactive	inactive	inactive		Not Active		4.21	4.58	4.79	4.46			
